The subject of one assay is CD34^+CD38^− cells. The experiment in a line: Expansion of CD34+CD38- cells using human cord blood-derived CD34+ cells (Assay Example 1). The class given is cell-based. The conditions noted are these: for Expansion efficiency (CD34^+CD38^− cells): 100 ng/mL SCF, 7 days, based on the number of CD34^+CD38^− cells in the absence of compound; for Comparison with TPO: 3 μg/mL compound vs TPO 10 ng/mL, CD34^+CD38^− cells. As to the method: (§1) Human cord blood-derived CD34^+ cells were purchased from Lonza and plated on a 24-well plate (Corning) (10000 cells/1 mL/well). As the culture medium, StemSpan SFEM (StemCell Technologies) containing 100 ng/mL SCF (Wako Pure Chemical Industries) was used, and one of Compounds No. 1 to 72 dissolved in dimethyl sulfoxide was added in an amount of 0.1% (v/v) to a final concentration of 1 or 3 μg/mL. As a positive control, TPO (PeproTech) was used at a final concentration of 10 ng/mL.
(§2) After the cells were incubated in liquid culture at 37° C. for 7 days in a CO2 incubator (5% CO2), the number of viable cells was counted by trypan blue assay. The number of CD34^+CD38^− cells was calculated as follows. After the incubation, the cells in the liquid culture was stained with a CD34 antibody (APC, Becton, Dickinson and Company) and a CD38 antibody (PE, Becton, Dickinson and Company), then washed with PBS(−) containing 2% (v/v) FBS and stained with propidium iodide (Sigma-Aldrich Japan) added to a final concentration of 5 μg/mL. The stained cells were analyzed with a BD FACSCANTO™ II flow cytometer (Becton, Dickinson and Company) to determined the proportions of CD34^+ cells and CD34^+CD38^− cells, which was multiplied by the number of viable cells to calculate the numbers of CD34^+ cells and CD34^+CD38^− cells.
(§3) The expansion efficiencies in the presence of 1 or 3 μg/mL of compounds based on the number of CD34^+ cells in the absence of them are shown in Tables 3-1 and 3-2 on a scale of A for expansion efficiencies of 6 or greater, B for expansion efficiencies of at least 4 and less than 6, and C for expansion efficiencies of at least 2 and less than 4. The expansion efficiencies in the presence of 1 or 3 μg/mL of compounds based on the number of CD34^+CD38^− cells in the absence of them are shown in Tables 4-1 and 4-2 on a scale of A for expansion efficiencies of 10 or greater, B for expansion efficiencies of at least 5 and less than 10, and C for expansion efficiencies of at least 3 and less than 5. Further, in Table 3, the compounds with an expansion efficiency twice or more greater than that of TPO are marked with O.

In another assay the test system is CD34^+ cells. The experiment in a line: Expansion of CD34+ cells using human cord blood-derived CD34+ cells (Assay Example 1). The class given is cell-based. The conditions noted are these: 100 ng/mL SCF, 7 days, based on the number of CD34^+ cells in the absence of compound. As to the method: as §1, §2, §3

The source of these data is patent publication US9328085B2, “Heterocyclic compounds and expansion agents for hematopoietic stem cells” (NISSAN CHEMICAL INDUSTRIES, LTD., priority 2009, dated 2016).

In the case of `CC(=NNC(=O)c1ccc(C(=O)NCc2ccc(C(=O)NCc3ccccn3)cc2)s1)c1csc(-c2ccc(Br)cc2)c1O` [Compound No. 6], in the assay with CD34^+CD38^− cells (3 μg/mL compound), the “Expansion efficiency (CD34^+CD38^− cells)” value is “C (C for expansion efficiencies of at least 3 and less than 5)”.

As to `C/C(=N\NC(=O)c1ccc(C(=O)NCc2ccc(S(=O)(=O)NCCOCCO)cc2)s1)c1csc(-c2ccc(Cl)c(Cl)c2)c1O` [compound 1], the “Expansion efficiency (CD34^+CD38^− cells)” value in the assay on CD34^+CD38^− cells (3 μg/mL compound) was “A (A for expansion efficiencies of 10 or greater)”. For the same compound, in the assay on CD34^+ cells (3 μg/mL compound), the “Expansion efficiency (CD34^+ cells)” value was “C (C for expansion efficiencies of at least 2 and less than 4)”.

In the case of `CC(=NNC(=O)c1ccc(C(=O)NCc2ccc(S(=O)(=O)NCCOCCO)cc2)s1)c1csc(-c2ccc(C(C)(C)C)cc2)c1O` [compound 2], the “Expansion efficiency (CD34^+CD38^− cells)” value in the assay with CD34^+CD38^− cells (3 μg/mL compound) is given as “A (A for expansion efficiencies of 10 or greater)”. Moreover, the “Expansion efficiency (CD34^+ cells)” value in the assay with CD34^+ cells (3 μg/mL compound) is “B (B for expansion efficiencies of at least 4 and less than 6)”.

Consider `CC(=NNC(=O)c1ccc(C(=O)NCc2ccc(S(=O)(=O)NCCOCCO)cc2)s1)c1csc(-c2ccc(Br)cc2)c1O` [compound 3], for which the “Expansion efficiency (CD34^+CD38^− cells)” value in the assay with CD34^+CD38^− cells (3 μg/mL compound) is “A (A for expansion efficiencies of 10 or greater)”. The “Expansion efficiency (CD34^+ cells)” value in the assay on CD34^+ cells (3 μg/mL compound) was “C (C for expansion efficiencies of at least 2 and less than 4)”.

On to `CC(=NNC(=O)c1ccc(C(=O)NCc2ccc(C(=O)NCc3ccccn3)cc2)s1)c1csc(-c2ccc(Cl)c(Cl)c2)c1O` [compound 4], for which, in the assay on CD34^+CD38^− cells (3 μg/mL compound), the “Expansion efficiency (CD34^+CD38^− cells)” value is “B (B for expansion efficiencies of at least 5 and less than 10)”. In addition, the “Expansion efficiency (CD34^+ cells)” value in the assay with CD34^+ cells (3 μg/mL compound) is “C (C for expansion efficiencies of at least 2 and less than 4)”.

Take `CC(=NNC(=O)c1ccc(C(=O)NCc2ccc(C(=O)NCc3ccccn3)cc2)s1)c1csc(-c2ccc(C(C)(C)C)cc2)c1O` [compound 5]: in the assay with CD34^+CD38^− cells (3 μg/mL compound), the “Expansion efficiency (CD34^+CD38^− cells)” value is recorded as “A (A for expansion efficiencies of 10 or greater)”. In addition, the “Expansion efficiency (CD34^+ cells)” value in the assay on CD34^+ cells (3 μg/mL compound) was “B (B for expansion efficiencies of at least 4 and less than 6)”.

In the case of `CC(=NNC(=O)c1ccc(C(=O)NCc2ccc(C(=O)NCc3ccco3)cc2)s1)c1csc(-c2ccc(Cl)c(Cl)c2)c1O` [compound 7], the “Expansion efficiency (CD34^+CD38^− cells)” value in the assay with CD34^+CD38^− cells (3 μg/mL compound) was “B (B for expansion efficiencies of at least 5 and less than 10)”. For the same compound, the “Expansion efficiency (CD34^+ cells)” value with CD34^+ cells (3 μg/mL compound) is “C (C for expansion efficiencies of at least 2 and less than 4)”.

Consider `CC(=NNC(=O)c1ccc(C(=O)NCc2ccc(C(=O)NCc3ccco3)cc2)s1)c1csc(-c2ccc(C(C)(C)C)cc2)c1O` [compound 8], for which, in the assay with CD34^+CD38^− cells (3 μg/mL compound), the “Expansion efficiency (CD34^+CD38^− cells)” value was “B (B for expansion efficiencies of at least 5 and less than 10)”.

With `CC(=NNC(=O)c1ccc(C(=O)NCc2ccc(C(=O)NCc3ccco3)cc2)s1)c1csc(-c2ccc(Br)cc2)c1O` [compound 9], the “Expansion efficiency (CD34^+CD38^− cells)” value with CD34^+CD38^− cells (3 μg/mL compound) is “B (B for expansion efficiencies of at least 5 and less than 10)”. The “Expansion efficiency (CD34^+ cells)” value in the assay on CD34^+ cells (3 μg/mL compound) is “C (C for expansion efficiencies of at least 2 and less than 4)”.

Take `CC(=NNC(=O)c1ccc(C(=O)NCc2ccc(C(=O)NCC3CCCO3)cc2)s1)c1csc(-c2ccc(Cl)c(Cl)c2)c1O` (centres unmarked) [compound 10]: the “Expansion efficiency (CD34^+CD38^− cells)” value with CD34^+CD38^− cells (3 μg/mL compound) is reported as “A (A for expansion efficiencies of 10 or greater)”. The “Expansion efficiency (CD34^+ cells)” value with CD34^+ cells (3 μg/mL compound) is “B (B for expansion efficiencies of at least 4 and less than 6)”.

Take `CC(=NNC(=O)c1ccc(C(=O)NCc2ccc(C(=O)NCC3CCCO3)cc2)s1)c1csc(-c2ccc(C(C)(C)C)cc2)c1O` (centres unmarked) [compound 11]: the “Expansion efficiency (CD34^+CD38^− cells)” value in the assay with CD34^+CD38^− cells (3 μg/mL compound) is recorded as “A (A for expansion efficiencies of 10 or greater)”. For the same compound, the “Expansion efficiency (CD34^+ cells)” value with CD34^+ cells (3 μg/mL compound) is reported as “A (A for expansion efficiencies of 6 or greater)”.

Turning to `CC(=NNC(=O)c1ccc(C(=O)NCc2ccc(C(=O)NCC3CCCO3)cc2)s1)c1csc(-c2ccc(Br)cc2)c1O` (centres unmarked) [compound 12], in the assay with CD34^+CD38^− cells (3 μg/mL compound), the “Expansion efficiency (CD34^+CD38^− cells)” value is reported as “A (A for expansion efficiencies of 10 or greater)”. In addition, the “Expansion efficiency (CD34^+ cells)” value in the assay on CD34^+ cells (3 μg/mL compound) was “A (A for expansion efficiencies of 6 or greater)”.

Take `CC(=NNC(=O)c1ccc(C(=O)NCc2ccc(C(=O)NCCO)cc2)s1)c1csc(-c2ccc(Cl)c(Cl)c2)c1O` [compound 13]: in the assay with CD34^+CD38^− cells, the “Comparison with TPO” value was “∘”. For the same compound, the “Expansion efficiency (CD34^+CD38^− cells)” value with CD34^+CD38^− cells (3 μg/mL compound) is “A (A for expansion efficiencies of 10 or greater)”. Besides, the “Expansion efficiency (CD34^+ cells)” value with CD34^+ cells (3 μg/mL compound) was “A (A for expansion efficiencies of 6 or greater)”.

With `CC(=NNC(=O)c1ccc(C(=O)NCc2ccc(C(=O)NCCO)cc2)s1)c1csc(-c2ccc(C(C)(C)C)cc2)c1O` [compound 14], in the assay with CD34^+CD38^− cells (1 μg/mL compound), the “Expansion efficiency (CD34^+CD38^− cells)” value is “A (A for expansion efficiencies of 10 or greater)”. Also, in the assay with CD34^+ cells (1 μg/mL compound), the “Expansion efficiency (CD34^+ cells)” value was “A (A for expansion efficiencies of 6 or greater)”.

Take `CC(=NNC(=O)c1ccc(C(=O)NCc2ccc(C(=O)NCCO)cc2)s1)c1csc(-c2ccc(Br)cc2)c1O` [compound 15]: in the assay on CD34^+CD38^− cells, the “Comparison with TPO” value is “∘”. Besides, in the assay with CD34^+CD38^− cells (3 μg/mL compound), the “Expansion efficiency (CD34^+CD38^− cells)” value was “A (A for expansion efficiencies of 10 or greater)”. For the same compound, in the assay with CD34^+ cells (3 μg/mL compound), the “Expansion efficiency (CD34^+ cells)” value is reported as “A (A for expansion efficiencies of 6 or greater)”.

As to `CC(=NNC(=O)c1ccc(C(=O)NCc2ccc(C(=O)NCCN3CCOCC3)cc2)s1)c1csc(-c2ccc(Cl)c(Cl)c2)c1O` [compound 19], in the assay on CD34^+CD38^− cells (3 μg/mL compound), the “Expansion efficiency (CD34^+CD38^− cells)” value is reported as “A (A for expansion efficiencies of 10 or greater)”. Further, the “Expansion efficiency (CD34^+ cells)” value in the assay on CD34^+ cells (3 μg/mL compound) is “C (C for expansion efficiencies of at least 2 and less than 4)”.

Turning to `CC(=NNC(=O)c1ccc(C(=O)NCc2ccc(C(=O)NCCN3CCOCC3)cc2)s1)c1csc(-c2ccc(C(C)(C)C)cc2)c1O` [compound 20], in the assay on CD34^+CD38^− cells, the “Comparison with TPO” value is on record as “∘”. Moreover, the “Expansion efficiency (CD34^+CD38^− cells)” value in the assay with CD34^+CD38^− cells (3 μg/mL compound) is “A (A for expansion efficiencies of 10 or greater)”. Besides, the “Expansion efficiency (CD34^+ cells)” value in the assay on CD34^+ cells (3 μg/mL compound) is “B (B for expansion efficiencies of at least 4 and less than 6)”.

In the case of `CC(=NNC(=O)c1ccc(C(=O)NCc2ccc(C(=O)NCCN3CCOCC3)cc2)s1)c1csc(-c2ccc(Br)cc2)c1O` [compound 21], the “Comparison with TPO” value in the assay with CD34^+CD38^− cells is reported as “∘”. In addition, in the assay with CD34^+CD38^− cells (3 μg/mL compound), the “Expansion efficiency (CD34^+CD38^− cells)” value is “A (A for expansion efficiencies of 10 or greater)”. Further, the “Expansion efficiency (CD34^+ cells)” value in the assay on CD34^+ cells (3 μg/mL compound) was “A (A for expansion efficiencies of 6 or greater)”.

`CC(=NNC(=O)c1ccc(C(=O)NCc2ccc(C(=O)NCCN(CCO)CCO)cc2)s1)c1csc(-c2ccc(Cl)c(Cl)c2)c1O` [compound 22]: in the assay on CD34^+CD38^− cells, the “Comparison with TPO” value is recorded as “∘”. For the same compound, the “Expansion efficiency (CD34^+CD38^− cells)” value in the assay on CD34^+CD38^− cells (3 μg/mL compound) is reported as “A (A for expansion efficiencies of 10 or greater)”. Moreover, the “Expansion efficiency (CD34^+ cells)” value in the assay with CD34^+ cells (3 μg/mL compound) is “A (A for expansion efficiencies of 6 or greater)”.

In the case of `CC(=NNC(=O)c1ccc(C(=O)NCc2ccc(C(=O)NCCN3CCN(C(=O)OC(C)(C)C)CC3)cc2)s1)c1csc(-c2ccc(Br)cc2)c1O` [compound 27], in the assay with CD34^+CD38^− cells (3 μg/mL compound), the “Expansion efficiency (CD34^+CD38^− cells)” value is “C (C for expansion efficiencies of at least 3 and less than 5)”.

On to `CC(=NNC(=O)c1ccc(C(=O)NCc2ccc(C(=O)NCCOCCO)cc2)nc1)c1csc(-c2ccc(C(C)(C)C)cc2)c1O` [compound 47], for which, in the assay on CD34^+CD38^− cells (3 μg/mL compound), the “Expansion efficiency (CD34^+CD38^− cells)” value was “B (B for expansion efficiencies of at least 5 and less than 10)”.

As for `CC(=NNC(=O)c1cccc(C(=O)NCc2ccc(C(=O)NCCOCCO)cc2)n1)c1csc(-c2ccc(C(C)(C)C)cc2)c1O` [compound 50], the “Expansion efficiency (CD34^+CD38^− cells)” value in the assay with CD34^+CD38^− cells (3 μg/mL compound) is “C (C for expansion efficiencies of at least 3 and less than 5)”.
